Source: patent publication US20230203485A1, “METHODS FOR MODULATING MHC-I EXPRESSION AND IMMUNOTHERAPY USES THEREOF” (Dana-Farber Cancer Institute, Inc., priority 2020, published 2023)

Test system: class I antigen presentation gene expression in MCC cell lines
Test: RNA-seq / DESeq2 differential expression of MCC cell lines at baseline and after IFN-γ stimulation
Format: cell-based, human
Description: FIG. 2A comprises RNA-seq heatmaps of class I antigen presentation gene expression in MCC lines and controls.
FIG. 2B is a volcano plot of differentially expressed genes (genes below FDR cutoff 0.01 are shown in yellow) between baseline and IFN-γ-treated MCC cell lines. Differential expression analysis was performed using DESeq2, and negative LFC indicates increased expression in +IFN-γ samples. IFN genes are highlighted in red.
RNA samples were first assessed for quality using the Agilent Bioanalyzer (DV200 metric). One hundred ng of RNA were used as the input for first strand cDNA synthesis using Superscript III reverse transcriptase and Illumina's TruSeq RNA Access Sample Prep Kit. Synthesis of the second strand of cDNA was followed by indexed adapter ligation with UMI (unique molecular index) adaptors. Subsequent PCR amplification enriched for adapted fragments. Amplified libraries were quantified, normalized, pooled, and hybridized with exome targeting oligos. Following hybridization, bead clean-up, elution and PCR was performed to prepare library pools for sequencing on Illumina flowcell lanes. Transcriptomes were sequenced to a coverage of at least 50 million reads in pairs.
Raw fastq files for fibroblast and keratinocyte control lines were downloaded from SRA using R Bioconductor package SRAdb (Mayakonda et al. (2018) supra; Zhu et al. (2013) BMC Bioinformatics 14 (1): 1-4) using accession codes SRP126422 (4 replicates from control samples ‘NN’) and SRP131347 (6 replicates with condition: control and genotype: control). These fastq files, along with those for the mkl1 and waga cell lines, were aligned using STAR version 2.7.3a (Dobin et al. (2013) Bioinformatics 29 (1): 15-21), using index genome reference file downloaded from ftp.ebi.ac.uk/pub/databases/gencode/Gencode_human/release_19/GRCh37.p13.genome.fa.gz, transcript annotation file downloaded from data.broadinstitute.org/snowman/hg19/star/gencode.v19.annotation.gtf, and with the following options: --twopassMode Basic, --outSAMstrandField intronMotif, --alignIntronMax 1000000, --alignMatesGapMax 1000000, --sjdbScore 2, --outSAMtype BAM Unsorted, --outSAMattributes NH HI NM MD AS XS, --outFilterType BySJout, --outSAMunmapped Within, --genomeLoad NoSharedMemory, --outFilterScoreMinOverLread 0, --outFilterMatchNminOverLread 0, --outFilterMismatchNmax 999, and outFilterMultimapNmax 20. Duplicates were marked with picard MarkDuplicates version 2.22.0-SNAPSHOT.
RNA-sequencing bam files for MCC tumor and cell line samples were downloaded from the Broad Genomics Firecloud/Terra platform using the Google Cloud Storage command line tool gsutil version 4.5 (github.com/GoogleCloudPlatform/gsutil/).
Gene counts were obtained from bam files using featureCounts version 2.0.0 (doi.org/10.1093/bioinformatics/btt656). Very lowly expressed genes with average count across samples less than 1 were excluded from analysis. Between-sample distance metrics were computed using the Euclidean distance on the vectors of variance-stabilized counts obtained from the vst function in the DESeq2 R Bioconductor package ([…]; Love et al. (2014) Genome Biology 15 (12): 550).
Differential expression analysis was carried out between (1) viral positive and viral negative samples (adjusting for cell line or tumor as a covariate), (2) cell line and tumor samples (adjusting for viral status as a covariate), and (3) IFNγ plus and minus samples (adjusting for viral status as a covariate) using the negative binomial GLM Wald test of DESeq2, where significance was assessed using the p-values adjusted for multiple comparisons under default settings. To account for potential global gene expression differences among sample groups, RUVg (Risso et al. (2014) […] 32 (9): 896-902) was used to estimate latent factors of unwanted variation from the list of housekeeping genes downloaded from www.tau.ac.il/˜elieis/HKG/HK_genes.txt. […]

[1] = 11 MCC cell lines, baseline vs IFNγ, negative LFC = upregulation in IFNγ-treated

IFN-y: type II interferon, recombinant human, used to treat MCC cells
class I genes mRNA expression (RNA-seq) (10 of 11 MCC lines, baseline vs treated): markedly upregulated | log2FoldChange ACSL5 (ENSG00000197142.6) [1]: −5.831 | log2FoldChange ADAR (ENSG00000160710.11) [1]: −1.068 | log2FoldChange ADGRF3 (ENSG00000173567.10) [1]: −0.853 | log2FoldChange ATP2C1 (ENSG00000017260.15) [1]: −0.5502 | log2FoldChange ATP10D (ENSG00000145246.9) [1]: −2.417 | log2FoldChange AZIN2 (ENSG00000142920.12) [1]: −1.224 | log2FoldChange BATF2 (ENSG00000168062.5) [1]: −7.362 | log2FoldChange BCL2L14 (ENSG00000121380.8) [1]: −5.59 | log2FoldChange BCL6 (ENSG00000113916.13) [1]: −2.953 | log2FoldChange BTN2A1 (ENSG00000112763.11) [1]: −0.9873 | log2FoldChange BTN2A3P (ENSG00000124549.10) [1]: −4.459 | log2FoldChange BTN3A1 (ENSG00000026950.12) [1]: −6.582 | log2FoldChange BTN3A2 (ENSG00000186470.9) [1]: −6.089 | log2FoldChange BTN3A3 (ENSG00000111801.11) [1]: −6.93 | log2FoldChange C1QB (ENSG00000173369.11) [1]: −3.233 | log2FoldChange C2 (ENSG00000166278.10) [1]: −4.096 | log2FoldChange C4A (ENSG00000244731.3) [1]: −1.245 | log2FoldChange C4B (ENSG00000224389.4) [1]: −2.248 | log2FoldChange C5orf56 (ENSG00000197536.6) [1]: −3.71 | log2FoldChange CARD16 (ENSG00000204397.3) [1]: −6.289 | log2FoldChange CASC6 (ENSG00000224944.1) [1]: −3.263 | log2FoldChange CASP1 (ENSG00000137752.18) [1]: −7.907 | log2FoldChange CASP4 (ENSG00000196954.8) [1]: −4.024 | log2FoldChange CASP7 (ENSG00000165806.15) [1]: −1.833 | log2FoldChange CCDC73 (ENSG00000186714.8) [1]: −2.84 | log2FoldChange CCND1 (ENSG00000110092.3) [1]: −5.698 | log2FoldChange CD74 (ENSG00000019582.10) [1]: −8.494 | log2FoldChange CD274 (ENSG00000120217.9) [1]: −6.119 | log2FoldChange CDC20 (ENSG00000117399.9) [1]: 0.6763 | log2FoldChange CFB (ENSG00000243649.4) [1]: −7.333 | log2FoldChange CIR1 (ENSG00000138433.11) [1]: −0.5344 | log2FoldChange CLVS1 (ENSG00000177182.6) [1]: −3.934 | log2FoldChange CMPK2 (ENSG00000134326.7) [1]: −2.83 | log2FoldChange CSF1 (ENSG00000184371.9) [1]: −3.741 | log2FoldChange CTSO (ENSG00000256043.2) [1]: −3.005 | log2FoldChange CXCL9 (ENSG00000138755.5) [1]: −11.74 | log2FoldChange CXCL10 (ENSG00000169245.4) [1]: −5.89 | log2FoldChange CXCL11 (ENSG00000169248.8) [1]: −4.672 | log2FoldChange DDO (ENSG00000203797.5) [1]: −4.692 | log2FoldChange DDX58 (ENSG00000107201.5) [1]: −2.939 | log2FoldChange DDX60 (ENSG00000137628.12) [1]: −7.298 | log2FoldChange DDX60L (ENSG00000181381.9) [1]: −3.461 | log2FoldChange DNPEP (ENSG00000123992.14) [1]: −1.703 | log2FoldChange DTX3L (ENSG00000163840.5) [1]: −4.603 | log2FoldChange EIF2AK2 (ENSG00000055332.12) [1]: −1.367 | log2FoldChange ENSG00000121848.9 (symbol NA) [1]: −0.3499 | log2FoldChange ENSG00000197146.2 (symbol NA) [1]: −1.6 | log2FoldChange ENSG00000202533.1 (symbol NA) [1]: −3.684 | log2FoldChange ENSG00000213500.3 (symbol NA) [1]: −2.007 | log2FoldChange ENSG00000224666.2 (symbol NA) [1]: −5.276 | log2FoldChange ENSG00000224789.1 (symbol NA) [1]: −2.338 | log2FoldChange ENSG00000225931.3 (symbol NA) [1]: −4.205 | log2FoldChange ENSG00000229023.1 (symbol NA) [1]: −4.669 | log2FoldChange ENSG00000229677.1 (symbol NA) [1]: −2.162 | log2FoldChange ENSG00000230812.1 (symbol NA) [1]: −5.173 | log2FoldChange ENSG00000231280.1 (symbol NA) [1]: −5.122 | log2FoldChange ENSG00000232709.1 (symbol NA) [1]: −3.863 | log2FoldChange ENSG00000233892.1 (symbol NA) [1]: −1.246 | log2FoldChange ENSG00000234290.2 (symbol NA) [1]: −2.28 | log2FoldChange ENSG00000238000.1 (symbol NA) [1]: −1.895 | log2FoldChange ENSG00000238160.1 (symbol NA) [1]: −3.274 | log2FoldChange ENSG00000238991.1 (symbol NA) [1]: −3.733 | log2FoldChange ENSG00000245025.2 (symbol NA) [1]: −3.838 | log2FoldChange ENSG00000248693.1 (symbol NA) [1]: −3.648 | log2FoldChange ENSG00000252206.1 (symbol NA) [1]: −2.445 | log2FoldChange ENSG00000260336.1 (symbol NA) [1]: −2.736 | log2FoldChange ENSG00000261618.1 (symbol NA) [1]: −6.277 | log2FoldChange ENSG00000271581.1 (symbol NA) [1]: −4.138 | log2FoldChange ENSG00000271646.1 (symbol NA) [1]: −1.853 | log2FoldChange ENSG00000272941.1 (symbol NA) [1]: −7.747 | log2FoldChange ERAP1 (ENSG00000164307.8) [1]: −2.331 | log2FoldChange ERAP2 (ENSG00000164308.12) [1]: −3.931 | log2FoldChange ETV7 (ENSG00000010030.9) [1]: −5.205 | log2FoldChange FAM110C (ENSG00000184731.5) [1]: −3.465 | log2FoldChange FAM111A (ENSG00000166801.11) [1]: −2.679 | log2FoldChange FAM186B (ENSG00000135436.4) [1]: −1.748 | log2FoldChange FAS (ENSG00000026103.15) [1]: −2.315
